The values below come from ChEMBL document CHEMBL2062477, “Dual-Specificity Phosphatase CDC25A/B Inhibitor Identified from a Focused Library with Nonelectrophilic Core Structure” (ACS Med Chem Lett, 2012).

For test [1], the target named is T1, Dual specificity protein phosphatase 6 (Homo sapiens, UniProt Q16828).
T1 sequence (Q16828 whole entry): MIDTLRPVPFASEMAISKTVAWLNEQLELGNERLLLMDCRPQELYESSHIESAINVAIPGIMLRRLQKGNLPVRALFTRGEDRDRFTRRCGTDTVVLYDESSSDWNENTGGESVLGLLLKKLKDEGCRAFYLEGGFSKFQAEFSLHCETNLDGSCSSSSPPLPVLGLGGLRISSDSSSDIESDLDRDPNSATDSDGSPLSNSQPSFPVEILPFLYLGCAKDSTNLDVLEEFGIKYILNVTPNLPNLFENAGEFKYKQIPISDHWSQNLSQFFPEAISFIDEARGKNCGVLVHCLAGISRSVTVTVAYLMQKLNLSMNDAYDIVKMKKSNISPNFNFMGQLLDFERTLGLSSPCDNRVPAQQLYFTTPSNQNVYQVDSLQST
The experiment in a line: Inhibition of MKP3.

Test [2] concerns the target T2, Tyrosine-protein phosphatase non-receptor type 1 (Homo sapiens, UniProt P18031).
T2 sequence (P18031 whole entry): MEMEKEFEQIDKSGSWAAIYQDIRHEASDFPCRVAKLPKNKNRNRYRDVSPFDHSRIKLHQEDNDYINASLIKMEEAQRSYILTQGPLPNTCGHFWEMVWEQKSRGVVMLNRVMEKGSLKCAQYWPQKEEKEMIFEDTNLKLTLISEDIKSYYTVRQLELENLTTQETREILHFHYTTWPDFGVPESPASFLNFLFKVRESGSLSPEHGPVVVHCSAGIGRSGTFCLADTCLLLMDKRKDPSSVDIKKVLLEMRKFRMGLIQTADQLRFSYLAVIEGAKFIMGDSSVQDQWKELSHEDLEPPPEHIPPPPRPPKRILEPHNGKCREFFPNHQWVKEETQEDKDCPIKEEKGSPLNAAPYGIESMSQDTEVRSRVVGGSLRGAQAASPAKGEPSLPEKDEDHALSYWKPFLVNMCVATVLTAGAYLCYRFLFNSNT
As to the kind of experiment: Inhibition of PTP1B.

Test [3] deals with T3, Dual specificity protein phosphatase 1 (Homo sapiens, UniProt P28562).
T3 sequence (P28562 whole entry): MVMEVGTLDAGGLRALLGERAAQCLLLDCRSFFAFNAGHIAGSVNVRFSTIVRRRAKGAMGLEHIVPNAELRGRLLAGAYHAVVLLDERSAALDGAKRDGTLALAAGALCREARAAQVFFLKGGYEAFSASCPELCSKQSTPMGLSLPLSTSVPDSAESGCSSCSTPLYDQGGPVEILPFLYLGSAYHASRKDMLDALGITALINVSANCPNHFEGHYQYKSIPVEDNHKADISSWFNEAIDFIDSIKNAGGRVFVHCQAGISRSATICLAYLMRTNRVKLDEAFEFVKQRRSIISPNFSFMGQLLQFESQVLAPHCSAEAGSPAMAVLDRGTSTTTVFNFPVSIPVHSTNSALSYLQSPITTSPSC
The experiment in a line: Inhibition of MKP1.

Test [4] concerns the target T4, M-phase inducer phosphatase 1 (Homo sapiens, UniProt P30304).
T4 sequence (P30304 whole entry): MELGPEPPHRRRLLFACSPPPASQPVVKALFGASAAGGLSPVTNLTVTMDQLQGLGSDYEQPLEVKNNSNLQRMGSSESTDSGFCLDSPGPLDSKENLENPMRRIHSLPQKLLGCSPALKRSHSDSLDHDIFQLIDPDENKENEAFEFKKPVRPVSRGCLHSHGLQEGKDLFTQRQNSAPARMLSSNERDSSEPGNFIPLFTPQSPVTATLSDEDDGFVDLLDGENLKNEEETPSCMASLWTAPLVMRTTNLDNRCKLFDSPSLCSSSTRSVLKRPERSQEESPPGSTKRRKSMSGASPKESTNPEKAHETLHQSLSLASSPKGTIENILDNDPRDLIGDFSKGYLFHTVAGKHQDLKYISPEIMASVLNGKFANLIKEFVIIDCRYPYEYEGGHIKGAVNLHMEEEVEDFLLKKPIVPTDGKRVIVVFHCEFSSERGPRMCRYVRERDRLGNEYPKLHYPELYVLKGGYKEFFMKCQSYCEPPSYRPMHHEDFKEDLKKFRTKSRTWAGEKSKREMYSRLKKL
As to the kind of experiment: Inhibition of CDC25A.

Test [5] concerns the target T5, M-phase inducer phosphatase 3 (Homo sapiens, UniProt P30307).
T5 sequence (P30307 whole entry): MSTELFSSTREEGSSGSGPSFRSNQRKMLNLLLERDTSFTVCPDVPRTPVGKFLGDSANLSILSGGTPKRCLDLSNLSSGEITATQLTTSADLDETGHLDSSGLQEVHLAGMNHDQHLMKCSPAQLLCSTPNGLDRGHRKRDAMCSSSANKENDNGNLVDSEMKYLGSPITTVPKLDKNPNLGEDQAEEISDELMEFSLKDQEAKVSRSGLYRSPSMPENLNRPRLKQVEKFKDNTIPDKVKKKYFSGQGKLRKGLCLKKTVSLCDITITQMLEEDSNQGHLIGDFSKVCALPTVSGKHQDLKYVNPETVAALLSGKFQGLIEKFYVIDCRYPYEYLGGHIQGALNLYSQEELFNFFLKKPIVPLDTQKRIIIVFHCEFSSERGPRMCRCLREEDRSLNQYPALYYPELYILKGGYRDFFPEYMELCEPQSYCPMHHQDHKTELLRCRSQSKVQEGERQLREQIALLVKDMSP
The experiment in a line: Inhibition of CDC25C.

Test [6] concerns the target Dual specificity protein phosphatase 3 (Homo sapiens, UniProt P51452). The experiment in a line: Inhibition of VHR.
The target of test [7] is T6, M-phase inducer phosphatase 2 (Homo sapiens, UniProt P30305).
T6 sequence (P30305 whole entry): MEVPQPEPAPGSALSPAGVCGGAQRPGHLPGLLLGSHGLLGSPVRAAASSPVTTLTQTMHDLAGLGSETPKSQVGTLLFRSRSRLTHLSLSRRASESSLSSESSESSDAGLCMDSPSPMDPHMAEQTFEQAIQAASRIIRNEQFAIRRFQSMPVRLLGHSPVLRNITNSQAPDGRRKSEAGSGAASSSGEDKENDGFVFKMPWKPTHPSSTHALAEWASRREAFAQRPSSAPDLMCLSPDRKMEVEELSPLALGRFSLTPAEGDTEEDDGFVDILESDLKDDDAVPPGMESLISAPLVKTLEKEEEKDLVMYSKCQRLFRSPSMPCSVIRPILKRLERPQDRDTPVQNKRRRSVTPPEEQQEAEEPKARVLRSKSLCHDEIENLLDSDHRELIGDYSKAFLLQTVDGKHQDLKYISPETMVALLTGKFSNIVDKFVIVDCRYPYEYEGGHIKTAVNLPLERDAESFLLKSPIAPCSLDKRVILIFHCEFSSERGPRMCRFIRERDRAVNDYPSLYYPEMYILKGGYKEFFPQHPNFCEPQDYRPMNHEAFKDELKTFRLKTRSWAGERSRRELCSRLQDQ
As to the kind of experiment: Inhibition of CDC25B.

For test [8], the system named is HL-60. The experiment in a line: cells. The following applies: Homo sapiens, HL-60, 48 h.

For orientation: IC50 means the concentration at which inhibition is half-maximal. Low values mean greater potency in that assay, high ones weaker potency in that assay.

Chain of Dual specificity protein phosphatase 3 (P51452 whole entry): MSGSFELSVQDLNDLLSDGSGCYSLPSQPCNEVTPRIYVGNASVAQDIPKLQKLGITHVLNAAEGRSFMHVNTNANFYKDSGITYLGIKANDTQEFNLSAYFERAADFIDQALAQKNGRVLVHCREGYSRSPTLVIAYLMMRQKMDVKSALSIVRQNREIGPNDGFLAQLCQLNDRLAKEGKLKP

Consider `CCCCCCCCCCCCCCCC(NCc1ccccc1F)=C1C(=O)OC(CO)C1=O` (mixture of isomers), for which the IC50 in test [1] is above 100 µM; in test [2], above 100 µM; in test [3] it was above 100 µM; in test [4], 12.6 µM; in test [5] it was 47.1 µM; in test [6], 8.93 µM.

For the compound `CCCCCCCCCCCCCCCC(NCc1cccc(N(C)C)c1)=C1C(=O)OC(CO)C1=O` (mixture of isomers), the half-inhibitory concentration (IC50) in test [1] is above 100 µM; in test [2], above 100 µM; in test [3], above 100 µM; in test [4], 11.4 µM; in test [5], above 100 µM; in test [7], 6.55 µM. This compound gave a 50% inhibitory concentration (IC50) in test [6] of 5.13 µM.

`CCCCCCCCCCCCCCCC(NCc1cccc(O)c1)=C1C(=O)OC(CO)C1=O` (mixture of isomers): the IC50 was above 100 µM in test [1]; above 100 µM in test [2]; above 100 µM in test [3]; 15.4 µM in test [4]; above 100 µM in test [5]; 3.15 µM in test [7]. Moreover, it took 11.1 µM to reach half-maximal inhibition in test [6] (IC50).

As to `CCCCCCCCCCCCCCCC(NCc1cccc(F)c1)=C1C(=O)OC(CO)C1=O` (mixture of isomers), the IC50 in test [1] was above 100 µM; in test [2], 83.7 µM; in test [3], above 100 µM; in test [4], 6.22 µM; in test [5], 78.2 µM; in test [7], 5.13 µM. In addition, half-maximal inhibition in test [6] (IC50) was put at 4.69 µM.

Take `CCCCCCCCCCCCCCCC(NCc1cccc(Cl)c1)=C1C(=O)OC(CO)C1=O` (mixture of isomers): the half-inhibitory concentration (IC50) was above 100 µM in test [1]; above 100 µM in test [2]; 12 µM in test [8]; above 100 µM in test [3]; above 100 µM in test [4]; above 100 µM in test [5]. The values for the IC50 in test [7] and in test [6] were above 100 µM and 1.43 µM, respectively.

Regarding `CCCCCCCCCCCCCCCC(NCc1cccc(OC)c1)=C1C(=O)OC(CO)C1=O` (mixture of isomers), the IC50 was above 100 µM in test [1]; above 100 µM in test [2]; above 100 µM in test [3]; 10.2 µM in test [4]; above 100 µM in test [5]; 8.31 µM in test [7]. This compound registered a half-inhibitory concentration (IC50) in test [6] of 5.53 µM.

`CCCCCCCCCCCCCCCC(NCc1ccc(OC)cc1)=C1C(=O)OC(CO)C1=O` (mixture of isomers): the IC50 in test [1] is above 100 µM; in test [2], above 100 µM; in test [3], above 100 µM; in test [4], 11.7 µM; in test [5] it was above 100 µM; in test [7], 23.8 µM. Also, the IC50 in test [6] worked out at 6.77 µM.

`CCCCCCCCCCCCCCCC(NCc1ccc(O)cc1)=C1C(=O)OC(CO)C1=O` (mixture of isomers): the concentration for half-maximal inhibition (IC50) in test [1] was above 100 µM; in test [2], 68.1 µM; in test [3] it was above 100 µM; in test [4], 6.86 µM; in test [5], 44.1 µM; in test [7], 4.23 µM. The same compound yielded a 50% inhibitory concentration (IC50) in test [6] of 9.93 µM.

As to `CCCCCCCCCCCCCCCC(NCc1ccccc1OC)=C1C(=O)OC(CO)C1=O` (mixture of isomers), the IC50 in test [1] was above 100 µM; in test [2], above 100 µM; in test [3], above 100 µM; in test [4], 19 µM; in test [5], above 100 µM; in test [7], 12.1 µM. In test [6], the 50% inhibitory concentration (IC50) amounted to 6.6 µM.

For `CCCCCCCCCCCCCCCC(NCc1ccc(N(C)C)cc1)=C1C(=O)OC(CO)C1=O` (mixture of isomers), the IC50 in test [1] is above 100 µM; in test [2], above 100 µM; in test [8] it was 10.9 µM; in test [3] it was above 100 µM; in test [4] it was 8.67 µM; in test [5], above 100 µM. Also, the half-maximal inhibitory concentration (IC50) is 6.23 µM in test [7] and 12 µM in test [6].

As to `CCCCCCCCCCCCCCCC(NCc1ccc(F)cc1)=C1C(=O)OC(CO)C1=O` (mixture of isomers), the 50% inhibitory concentration (IC50) in test [1] was above 100 µM; in test [2], above 100 µM; in test [3] it was above 100 µM; in test [4], 10.7 µM; in test [5], above 100 µM; in test [7] it was 13.1 µM.

Consider `CCCCCCCCCCCCCCCC(NCc1ccc(Cl)cc1)=C1C(=O)OC(CO)C1=O` (mixture of isomers), for which the half-maximal inhibitory concentration (IC50) in test [1] is above 100 µM; in test [2] it was above 100 µM; in test [3], above 100 µM; in test [4], 6.25 µM; in test [5] it was above 100 µM; in test [7] it was 5.52 µM. Besides, the IC50 in test [6] was 3.63 µM.

Take `CCCCCCCCCCCCCCCC(NCc1ccccc1N(C)C)=C1C(=O)OC(CO)C1=O` (mixture of isomers): the IC50 in test [1] is above 100 µM; in test [2], above 100 µM; in test [3] it was above 100 µM; in test [4] it was 8.5 µM; in test [5], above 100 µM; in test [7] it was 5.75 µM. The compound further had a half-inhibitory concentration (IC50) in test [6] of 5.19 µM.

On to `CCCCCCCCCCCCCCCC(NCc1ccccc1C)=C1C(=O)OC(CO)C1=O` (mixture of isomers), for which the IC50 in test [1] is above 100 µM; in test [2], above 100 µM; in test [3] it was above 100 µM; in test [4], 12.7 µM; in test [5] it was above 100 µM; in test [7], 8.61 µM. In test [6], half-maximal inhibition (IC50) required 8.99 µM.

Take `CCCCCCCCCCCCCCCC(NCc1ccccc1Cl)=C1C(=O)OC(CO)C1=O` (mixture of isomers): the IC50 was above 100 µM in test [1]; above 100 µM in test [2]; above 100 µM in test [3]; 12.3 µM in test [4]; above 100 µM in test [5]; 13.5 µM in test [7]. In test [6], the IC50 came to 10.2 µM.
